The structures appear in SMILES notation.

Sequence of Pol theta (1-899) (O75417 1-899): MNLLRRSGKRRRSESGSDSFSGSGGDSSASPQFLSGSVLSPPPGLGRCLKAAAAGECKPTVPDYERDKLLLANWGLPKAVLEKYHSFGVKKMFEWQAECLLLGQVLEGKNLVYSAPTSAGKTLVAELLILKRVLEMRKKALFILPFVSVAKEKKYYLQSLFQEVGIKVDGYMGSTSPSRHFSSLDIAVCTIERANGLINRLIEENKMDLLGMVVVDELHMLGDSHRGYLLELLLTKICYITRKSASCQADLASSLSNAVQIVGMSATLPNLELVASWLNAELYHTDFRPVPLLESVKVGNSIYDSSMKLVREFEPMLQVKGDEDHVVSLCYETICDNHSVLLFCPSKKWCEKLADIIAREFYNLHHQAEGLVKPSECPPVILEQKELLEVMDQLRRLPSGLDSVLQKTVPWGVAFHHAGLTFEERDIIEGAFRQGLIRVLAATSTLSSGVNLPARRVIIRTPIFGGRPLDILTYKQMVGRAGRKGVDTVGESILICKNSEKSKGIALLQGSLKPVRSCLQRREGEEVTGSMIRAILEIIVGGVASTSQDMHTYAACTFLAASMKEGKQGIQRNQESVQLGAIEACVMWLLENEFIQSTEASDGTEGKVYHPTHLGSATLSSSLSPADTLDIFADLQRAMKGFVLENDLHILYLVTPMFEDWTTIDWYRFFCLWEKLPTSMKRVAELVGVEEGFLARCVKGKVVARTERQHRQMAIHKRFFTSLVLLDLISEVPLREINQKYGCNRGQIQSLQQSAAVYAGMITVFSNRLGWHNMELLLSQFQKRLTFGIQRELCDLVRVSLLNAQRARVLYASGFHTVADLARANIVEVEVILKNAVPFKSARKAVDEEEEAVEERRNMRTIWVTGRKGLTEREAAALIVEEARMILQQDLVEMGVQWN

The target of the assay is Pol theta (1-899) (Homo sapiens (Human), UniProt O75417). Kind of assay: Pol theta ATPase activity, NADH oxidation-coupled enzymatic assay. In kind it is biochemical. The note with it: Pol theta (1-899) 10 nM, ATP, dT50 ssDNA, absorbance 340 nm, 10-point dilution series; read-out: ATPase NADH coupling:Standard Screening:hPolQ IC50. How it is done:
The ability of the compounds of Formula (I) to inhibit ATPase activity of Pol theta (1-899) was determined using the assay described below.
Pol Theta ATPase activity was determined by measuring the rate of ATP turn over in a NADH oxidation-coupled enzymatic assay. 10-point dilution series of compounds were used in a 384 well format for the inhibition assays. Pol theta (1-899) (10 nM) in assay buffer (20 mM Tris HCl (pH 7.80), 80 mM KCl, 10 mM MgCl2, 1 mM DTT, 0.01% BSA, 0.01% Tween, 5% glycerol) was transferred to the test wells (20 μL), except the low control wells (20 μL of assay buffer was added to the low control wells). The plate was then incubated at room temperature for 15 min. An equal volume (20 μL) of 100 μM ATP, 300 nM dT50 (single-stranded DNA (ssDNA) containing 50 thymine bases), 300 μM NADH, 6 mM PEP, 10 U/mL lactate dehydrogenase and 20 U/mL pyruvate kinase in assay buffer was added to all the test wells. The plate was then centrifuged at 1000 rpm for 1 min. The reaction was monitored for 30 min by measuring absorbance (λ=340 nm) in a Tecan Spark multimode plate reader every minute. The high control (DMSO with enzyme) with low absorbance intensity represents no inhibition of ATPase reaction while the low control (DMSO with buffer) with high absorbance intensity represents full inhibition of ATPase activity. Slope of the reaction progress curves were used to calculate the rate of ATP hydrolysis. The rates were used to determine the percent inhibition using a four-parameter inhibition model to generate IC50, Hill slope and max inhibition.
As a reminder, the IC50 is the concentration needed to halve the response being measured. With `O=C(Nc1nnc(OCc2ccc(Cl)cc2)s1)c1cccnc1N1CCN2C(=O)CC[C@H]2C1` (single isomer, unassigned) [Example 69, (R)—N-(5-((4-chlorobenzyl)oxy)-1,3,4-thiadiazol-2-yl)-2-(6-oxohexahydropyrrolo[1,2-a]pyrazin-2(1H)-yl)nicotinamide or (S)—N-(5-((4-chlorobenzyl)oxy)-1,3,4-thiadiazol-2-yl)-2-(6-oxohexahydropyrrolo[1,2-a]pyrazin-2(1H)-yl)nicotinamide], the IC50 was 1000 to 10000 nM.

Turning to `C[C@@H]1C(=O)NCCN1c1cnccc1C(=O)Nc1nnc(OCc2ccc(Cl)cn2)s1` (racemic) [Example 179, (S)—N-(5-((5-chloropyridin-2-yl)methoxy)-1,3,4-thiadiazol-2-yl)-3-(2-methyl-3-oxopiperazin-1-yl)isonicotinamide and (R)—N-(5-((5-chloropyridin-2-yl)methoxy)-1,3,4-thiadiazol-2-yl)-3-(2-methyl-3-oxopiperazin-1-yl)isonicotinamide], the IC50 was at most 200 nM.

With `O=C(Nc1nnc(OCc2ccc(Cl)cc2)s1)c1cccnc1N1CCOC2(CC2)C1` [Example 30, N-(5-((4-chlorobenzyl)oxy)-1,3,4-thiadiazol-2-yl)-2-(4-oxa-7-azaspiro[2.5]octan-7-yl)nicotinamide], the IC50 is at most 200 nM.

Take `O=C1CN(c2ncccc2C(=O)Nc2nnc(OCc3ccc(Cl)cc3)s2)CCCN1` [Example 63, N-(5-((4-chlorobenzyl)oxy)-1,3,4-thiadiazol-2-yl)-2-(3-oxo-1,4-diazepan-1-yl)nicotinamide]: the IC50 lay within 1000 to 10000 nM.

As to `C[C@@H]1COCCN1c1ncccc1C(=O)Nc1nnc(OCc2ccc(Cl)cn2)s1` [Example 22, (R)—N-(5-((5-chloropyridin-2-yl)methoxy)-1,3,4-thiadiazol-2-yl)-2-(3-methylmorpholino)nicotinamide], the IC50 lay within 1000 to 10000 nM.

On to `O=C(Nc1nnc(OCc2ccc(Cl)cc2)s1)c1cccnc1C1=CCOCC1` [Example 53, N-(5-((4-chlorobenzyl)oxy)-1,3,4-thiadiazol-2-yl)-2-(3,6-dihydro-2H-pyran-4-yl)nicotinamide], for which the IC50 lay within 500 to 1000 nM.

`O=C(Nc1nnc(OCc2ccc(Cl)cc2)s1)c1ccncc1[C@@]12CCOC[C@@H]1C2` (mixture of isomers) [Example 175, 3-((1R,6S)-3-oxabicyclo[4.1.0]heptan-6-yl)-N-(5-((4-chlorobenzyl)oxy)-1,3,4-thiadiazol-2-yl)isonicotinamide and 3-((1S,6R)-3-oxabicyclo[4.1.0]heptan-6-yl)-N-(5-((4-chlorobenzyl)oxy)-1,3,4-thiadiazol-2-yl)isonicotinamide]: the IC50 is at most 200 nM.

`COc1ccccc1-c1cc(C)ncc1C(=O)Nc1nnc(OCc2ccc(Cl)c3[nH]ncc23)s1` [Example 213, N-[5-[(7-chloro-1H-indazol-4-yl)methoxy]-1,3,4-thiadiazol-2-yl]-4-(2-methoxyphenyl)-6-methylpyridine-3-carboxamide]: the IC50 was at most 200 nM.

In the case of `O=C(Nc1nnc(OCc2ccc(Cl)cc2)s1)c1ccncc1-c1cccc2nsnc12` [Example 103, 3-(benzo[c][1,2,5]thiadiazol-4-yl)-N-(5-((4-chlorobenzyl)oxy)-1,3,4-thiadiazol-2-yl)isonicotinamide], the 50% inhibitory concentration (IC50) is at most 200 nM.

With `O=C(Nc1nnc(OCc2ccc(Cl)cn2)s1)c1cncn1-c1ccccc1Cl` [Example 26, 3-(2-chlorophenyl)-N-[5-[(5-chloropyridin-2-yl)methoxy]-1,3,4-thiadiazol-2-yl]imidazole-4-carboxamide], the IC50 is 200 to 500 nM.

Turning to `O=C(Nc1nnc(OCc2ccc(Cl)cc2)s1)c1ccncc1-c1cccc2ncoc12` [Example 111, 3-(benzo[d]oxazol-7-yl)-N-(5-((4-chlorobenzyl)oxy)-1,3,4-thiadiazol-2-yl)isonicotinamide], the IC50 was at most 200 nM.

With `COc1ccccc1-c1cnncc1C(=O)Nc1nnc(OCc2ccc(Cl)cn2)s1` [Example 106, N-(5-((5-chloropyridin-2-yl)methoxy)-1,3,4-thiadiazol-2-yl)-5-(2-methoxyphenyl)pyridazine-4-carboxamide], the IC50 is at most 200 nM.

As to `COc1ccccc1-c1cc(CC#N)ncc1C(=O)Nc1nnc(OCc2ccc(Cl)cc2)s1` [Example 105, N-(5-((4-chlorobenzyl)oxy)-1,3,4-thiadiazol-2-yl)-6-(cyanomethyl)-4-(2-methoxyphenyl)nicotinamide], the IC50 was at most 200 nM.

Regarding `COc1ccccc1-c1cnccc1C(=O)Nc1nnc(OCc2ccc(Cl)cc2)s1` [Example 95, N-(5-((4-chlorobenzyl)oxy)-1,3,4-thiadiazol-2-yl)-3-(2-methoxyphenyl)isonicotinamide], the IC50 was at most 200 nM.

For the compound `N#Cc1ccc(C(=O)Nc2nnc(OCc3ccc(Br)cc3)s2)c(N2CCOC3(CC3)C2)n1` [Example 85, N-(5-((4-bromobenzyl)oxy)-1,3,4-thiadiazol-2-yl)-6-cyano-2-(4-oxa-7-azaspiro[2.5]octan-7-yl)nicotinamide], the IC50 was at most 200 nM.

As to `COc1ccccc1-c1cnccc1C(=O)Nc1nnc(OCc2ccc(Cl)c3c2cnn3C)s1` [Example 146, N-[5-[(7-chloro-1-methylindazol-4-yl)methoxy]-1,3,4-thiadiazol-2-yl]-3-(2-methoxyphenyl)pyridine-4-carboxamide], the IC50 was at most 200 nM.

For `O=C(Nc1nnc(OCc2ccc(Cl)cc2)s1)c1cccnc1-n1cnnn1` [Example 11, N-(5-((4-chlorobenzyl)oxy)-1,3,4-thiadiazol-2-yl)-2-(1H-tetrazol-1-yl)nicotinamide], the IC50 fell in the range of 1000 to 10000 nM.

Take `O=C(Nc1nnc(OCc2ccc(Cl)cc2)s1)c1cncnc1N1CCOCC1` [Example 13, N-(5-((4-chlorobenzyl)oxy)-1,3,4-thiadiazol-2-yl)-4-morpholinopyrimidine-5-carboxamide]: the IC50 lay within 200 to 500 nM.

As for `COc1ccccc1-c1cc(C)ncc1C(=O)Nc1nnc(OCc2cccc(F)n2)s1` [Example 211, N-[5-[(6-fluoropyridin-2-yl)methoxy]-1,3,4-thiadiazol-2-yl]-4-(2-methoxyphenyl)-6-methylpyridine-3-carboxamide], the IC50 was at most 200 nM.

In the case of `N#Cc1ccccc1-n1cncc1C(=O)Nc1nnc(OCc2ccc(Cl)cc2)s1` [Example 43, N-(5-((4-chlorobenzyl)oxy)-1,3,4-thiadiazol-2-yl)-1-(2-cyanophenyl)-1H-imidazole-5-carboxamide], the IC50 lay in the range of 200 to 500 nM.

With `COc1ccccc1-c1cc2cncn2cc1C(=O)Nc1nnc(OCc2ccc(Cl)cn2)s1` [Example 224, N-[5-[(5-chloropyridin-2-yl)methoxy]-1,3,4-thiadiazol-2-yl]-7-(2-methoxyphenyl)imidazo[1,5-a]pyridine-6-carboxamide], the IC50 was at most 200 nM.

For `COc1cc(-c2ccccc2OC)c(C(=O)Nc2nnc(OCc3ccc(Cl)cn3)s2)cn1` [Example 222, N-(5-((5-chloropyridin-2-yl)methoxy)-1,3,4-thiadiazol-2-yl)-6-methoxy-4-(2-methoxyphenyl)nicotinamide], the IC50 is at most 200 nM.

As for `COc1ccc(C#N)cc1-c1cnccc1C(=O)Nc1nnc(OCc2ccc(Cl)cc2)s1` [Example 123, N-(5-((4-chlorobenzyl)oxy)-1,3,4-thiadiazol-2-yl)-3-(5-cyano-2-methoxyphenyl)isonicotinamide], the IC50 was at most 200 nM.

For the compound `COc1cc(COc2nnc(NC(=O)c3cccnc3N3CCOCC3)s2)ccc1Cl` [Example 34, N-(5-((4-chloro-3-methoxybenzyl)oxy)-1,3,4-thiadiazol-2-yl)-2-morpholinonicotinamide], the 50% inhibitory concentration (IC50) lay in the range of 1000 to 10000 nM.

Turning to `N#Cc1ccc(C(=O)Nc2nnc(OCc3ccc(Cl)cc3)s2)c(N2CCOC3(CC3)C2)n1` [Example 44, N-(5-((4-chlorobenzyl)oxy)-1,3,4-thiadiazol-2-yl)-6-cyano-2-(4-oxa-7-azaspiro[2.5]octan-7-yl)nicotinamide], the IC50 is at most 200 nM.

With `Cc1n[nH]cc1-c1cnccc1C(=O)Nc1nnc(OCc2ccc(Cl)cc2)s1` [Example 162, N-(5-((4-chlorobenzyl)oxy)-1,3,4-thiadiazol-2-yl)-3-(3-methyl-1H-pyrazol-4-yl)isonicotinamide], the IC50 was at most 200 nM.

For `COc1ccccc1-c1cc(C)ncc1C(=O)Nc1nnc(OCc2ccc(Cl)cc2)s1` [Example 138, N-[5-[(4-chlorophenyl)methoxy]-1,3,4-thiadiazol-2-yl]-4-(2-methoxyphenyl)-6-methylpyridine-3-carboxamide], the IC50 is at most 200 nM.

In the case of `O=C(Nc1nnc(OCc2ccc(Cl)cc2)s1)c1cnccc1-c1ccccc1C(F)(F)F` [Example 132, N-(5-((4-chlorobenzyl)oxy)-1,3,4-thiadiazol-2-yl)-4-(2-(trifluoromethyl)phenyl)nicotinamide], the IC50 was at most 200 nM.

In the case of `O=C(Nc1nnc(OCc2ccc(Cl)cc2)s1)c1ccncc1-c1ccccc1OC1COC1` [Example 134, N-[5-[(4-chlorophenyl)methoxy]-1,3,4-thiadiazol-2-yl]-3-[2-(oxetan-3-yloxy)phenyl]pyridine-4-carboxamide], the IC50 was at most 200 nM.
